{
  "source": "patent US20210315844A1",
  "about": "“ENDOXIFEN FOR THE TREATMENT OF BIPOLAR I DISORDER” (Jina Pharmaceuticals, Inc., priority 2020, published 2021)",
  "key": {"[1]": {"test_system": "patient of bipolar I disorders", "test": "Clinical study: C-SSRS score / risk of suicidal behavior in patients treated with endoxifen enteric coated tablet", "format": "in vivo, human", "conditions": "day 21 (EOT)", "description": "Clinical study of an enteric coated tablet comprising endoxifen citrate formulation was carried out by administering to the patient doses of 2 mg to 16 mg of endoxifen citrate in an enteric coated tablet once per day for at least 21 days according to the present application.\nThis study was a multicenter, randomized, double-blind, double-dummy, active controlled, parallel study to assess the efficacy and safety of endoxifen enteric coated tablet 8 mg and divalproex sodium extended release tablet 1000 mg in patient of bipolar I disorders, this study also evaluated the risk of suicidal behavior in the patient and that has progressed during or after treatment with at least one drug(s) selected from lithium, valproate, carbamazepine or an atypical (except clozapine) or typical antipsychotic.\nTotal 110 patients were qualified for PP population."}, "PKC": {"test_system": "PKC", "conditions": "relative to tamoxifen; cited from earlier work"}},
  "data": [
    {"smiles": "CC/C(=C(\\c1ccc(O)cc1)c1ccc(OCCNC)cc1)c1ccccc1.O=C(O)CC(O)(CC(=O)O)C(=O)O", "note": "[Endoxifen, (Z)-1-(4-Hydroxyphenyl)-1-{4-[2-(monomethylamino)ethoxy]phenyl}-2-phenyl-1-butene citrate]", "values": [
      {"measurement": "risk of suicidal behavior", "setting": "[1]", "value": "zero"},
      {"measurement": "potency in inhibiting the PKC activity compared to tamoxifen", "setting": "PKC", "value": "four-fold higher potency"}
    ]}
  ]
}
